Among the data in US10570116B2, “1,4-dicarbonyl-piperidyl derivatives” (Merck Patent GmbH, priority 2015, dated 2020) are EC50 and IC50 values, retold here.

Read-outs that look alike come from different tables or passages of the source.

The test system of one assay is Tankyrases. The experiment in a line: Measurement of cellular inhibition of Tankyrase (Axin2 level, Luminex based assay, DLD1 cells). The format is cell-based. Conditions: increase of Axin2 level, 24 hours, read-out: EC50 [M] TNKS cellular assay.
The next assay addresses TNKS1 (Homo sapiens (Human), UniProt O95271). The experiment in a line: biochemical. The format is biochemical.
The next assay has as its target TNKS2 (Homo sapiens (Human), UniProt Q9H2K2). The experiment in a line: biochemical. In kind it is biochemical.
The mark [1] stands for this setting: GST-tagged Tnks-1 (1023-1327 aa), read-out: IC50 [M] TNKS1 ELISA.
Where [2] appears, read: GST-tagged Tnks-2 (873-1166 aa), read-out: IC50 [M] TNKS2 ELISA.

For orientation: EC50 means the concentration that produces a half-maximal response. Broadly, the IC50 is the concentration that inhibits the measured activity by half.

With `CC(C)(CC(=O)N1CCC(C(=O)c2ccc(C(=O)O)cc2)CC1)Cc1nc2ccccc2c(=O)[nH]1` [Compound C33, 4-{1-[3,3-Dimethyl-4-(4-oxo-3,4-dihydro-quinazolin-2-yl)-butyryl]-piperidine-4-carbonyl}-benzoic Acid], the EC50 in the assay with Tankyrases turned out to be 1.5e-07 M. In addition, the results for the IC50 on TNKS1 (setting [1]) and at TNKS2 (setting [2]) were 5.1e-10 M and 4.5e-10 M, respectively.
The like results for `COc1ccc(C(=O)C2CCN(C(=O)COCc3nc4c(F)cc(F)cc4c(=O)[nH]3)CC2)cc1` [Compound C26, 6,8-Difluoro-2-{2-[4-(4-methoxy-benzoyl)-piperidin-1-yl]-2-oxo-ethoxymethyl}-3H-quinazolin-4-one] were, in that order, 2.3e-08 M, 7.7e-09 M and 3e-09 M.
The like results for `Cn1cc(C(=O)C2CCN(C(=O)COCc3nc4ccccc4c(=O)[nH]3)CC2)cn1` [Compound C24, 2-{2-[4-(1-Methyl-1H-pyrazole-4-carbonyl)-piperidin-1-yl]-2-oxo-ethoxymethyl}-3H-quinazolin-4-one] were, in that order, 1e-07 M, 2.7e-08 M and 1.2e-08 M.
The like results for `C[C@@H](CC(=O)N1CCC(C(=O)c2cnn(C)c2)CC1)Cc1cc2ccccc2c(=O)[nH]1` [Compound C51, 3-{(R)-2-Methyl-4-[4-(1-methyl-1H-pyrazole-4-carbonyl)-piperidin-1-yl]-4-oxo-butyl}-2H-isoquinolin-1-one] were, in that order, 1.2e-08 M, 1e-09 M and 7.2e-10 M.
For `CN(C)Cc1ccc(C(=O)C2CCN(C(=O)CC(C)(C)Cc3nc4ccccc4c(=O)[nH]3)CC2)cc1` [Compound C48, 2-{4-[4-(4-Dimethylaminomethyl-benzoyl)-piperidin-1-yl]-2,2-dimethyl-4-oxo-butyl}-3H-quinazolin-4-one], the EC50 in the assay with Tankyrases worked out at 1.3e-07 M. Moreover, the values for the IC50 at TNKS1 (setting [1]) and on TNKS2 (setting [2]) were 1.4e-08 M and 5.3e-09 M, respectively.
The like results for `COc1ccc(C(=O)C2CCN(C(=O)COCc3nc4ccccc4c(=O)[nH]3)CC2)cc1` [Compound C23, 2-{2-[4-(4-Methoxy-benzoyl)-piperidin-1-yl]-2-oxo-ethoxymethyl}-3H-quinazolin-4-one] were, in that order, 2.6e-08 M, 6.3e-09 M and 2.1e-09 M.
`COC(=O)c1ccc(C(=O)C2CCN(C(=O)CC(C)(C)Cc3nc4ccccc4c(=O)[nH]3)CC2)cc1C` [Compound C38, 4-{1-[3,3-Dimethyl-4-(4-oxo-3,4-dihydro-quinazolin-2-yl)-butyryl]-piperidine-4-carbonyl}-2-methyl-benzoic Acid Methyl Ester]: the EC50 with Tankyrases was 9.9e-10 M. Also, the IC50 is 5.8e-10 M at TNKS1 (setting [1]) and 3.2e-10 M at TNKS2 (setting [2]).
For the molecule `Cn1cc(C(=O)C2CCN(C(=O)C(C)(C)CCc3nc4ccccc4c(=O)[nH]3)CC2)cn1` [Compound C13, 2-{3,3-Dimethyl-4-[4-(1-methyl-1H-pyrazole-4-carbonyl)-piperidin-1-yl]-4-oxo-butyl}-3H-quinazolin-4-one], the EC50 with Tankyrases worked out at 2.3e-06 M. The IC50 worked out at 6.1e-07 M at TNKS1 (setting [1]) and 4.2e-07 M at TNKS2 (setting [2]).
Consider `COc1ccc(C(=O)C2CCN(C(=O)NCCc3nc4ccccc4c(=O)[nH]3)CC2)cc1` [Compound C29, 4-(4-Methoxy-benzoyl)-piperidine-1-carboxylic acid [2-(4-oxo-3,4-dihydro-quinazolin-2-yl)-ethyl]-amide], for which the IC50 was 1.8e-09 M at TNKS1 (setting [1]) and 8.4e-10 M at TNKS2 (setting [2]).
`CC(C)[C@H](CC(=O)N1CCC(C(=O)c2cnn(C)c2)CC1)Cc1nc2ccccc2c(=O)[nH]1` [Compound C8, 2-((S)-3-Methyl-2-{2-[4-(1-methyl-1H-pyrazole-4-carbonyl)-piperidin-1-yl]-2-oxo-ethyl}-butyl)-3H-quinazolin-4-one]: the EC50 in the assay with Tankyrases was 9.2e-09 M.
Regarding `COc1ccc(C(=O)C2CCN(C(=O)COCc3nc4c(F)cc(F)cc4c(=O)[nH]3)CC2)cn1` [Compound C28, 6,8-Difluoro-2-{2-[4-(6-methoxy-pyridine-3-carbonyl)-piperidin-1-yl]-2-oxo-ethoxymethyl}-3H-quinazolin-4-one], in the assay with Tankyrases, the 50% effective concentration (EC50) came out at 1e-07 M. Further, the IC50 at TNKS1 (setting [1]) turned out to be 3.4e-08 M; on TNKS2 (setting [2]), 1.2e-08 M.
The like results for `COC(=O)c1cccc(C(=O)C2CCN(C(=O)CC(C)(C)Cc3nc4ccccc4c(=O)[nH]3)CC2)c1` [Compound C34, 3-{1-[3,3-Dimethyl-4-(4-oxo-3,4-dihydro-quinazolin-2-yl)-butyryl]-piperidine-4-carbonyl}-benzoic Acid Methyl Ester] were, in that order, 9.9e-09 M, 4.8e-10 M and 5e-10 M.
As for `Cc1cccc2c(=O)[nH]c(C[C@@H](C)CC(=O)N3CCC(C(=O)c4cccc(C(=O)O)c4)CC3)nc12` [Compound C44, 3-{1-[(R)-3-Methyl-4-(8-methyl-4-oxo-3,4-dihydro-quinazolin-2-yl)-butyryl]-piperidine-4-carbonyl}-benzoic Acid], in the assay on Tankyrases, the EC50 was 5.3e-06 M.
The same measure, in the same setting: the same measure for `CC(C)CC(CC(=O)N1CCC(C(=O)c2cnn(C)c2)CC1)Cc1nc2ccccc2c(=O)[nH]1` (stereo in doubt) [Compound C10, 2-((S)-4-Methyl-2-{2-[4-(1-methyl-1H-pyrazole-4-carbonyl)-piperidin-1-yl]-2-oxo-ethyl}-pentyl)-3H-quinazolin-4-one]: 9e-08 M; for `Cc1cccc2c(=O)[nH]c(CC(C)(C)CC(=O)N3CCC(C(=O)c4cccc(C(=O)O)c4)CC3)nc12` [Compound C37, 3-{1-[3,3-Dimethyl-4-(8-methyl-4-oxo-3,4-dihydro-quinazolin-2-yl)-butyryl]-piperidine-4-carbonyl}-benzoic Acid]: 4.8e-07 M.
Still for that read-out and setting: the same measure for `CC(C)[C@@H](CC(=O)N1CCC(C(=O)c2cnn(C)c2)CC1)Cc1nc2ccccc2c(=O)[nH]1` [Compound C9, 2-((R)-3-Methyl-2-{2-[4-(1-methyl-1H-pyrazole-4-carbonyl)-piperidin-1-yl]-2-oxo-ethyl}-butyl)-3H-quinazolin-4-one]: 1.4e-07 M; for `C[C@@H](CC(=O)N1CCC(C(=O)c2cnn(C)c2)CC1)Cc1nc2ccccc2c(=O)[nH]1` [Compound C3, 2-{(R)-2-Methyl-4-[4-(1-methyl-1H-pyrazole-4-carbonyl)-piperidin-1-yl]-4-oxo-butyl}-3H-quinazolin-4-one]: 3e-08 M.
In the case of `Cn1cc(C(=O)C2CCN(C(=O)COCc3nc4c(F)cc(F)cc4c(=O)[nH]3)CC2)cn1` [Compound C27, 6,8-Difluoro-2-{2-[4-(1-methyl-1H-pyrazole-4-carbonyl)-piperidin-1-yl]-2-oxo-ethoxymethyl}-3H-quinazolin-4-one], the IC50 was 2.9e-08 M at TNKS1 and 1.3e-08 M on TNKS2.
Regarding `CC(C)n1cc(C(=O)C2CCN(C(=O)C[C@H](C)Cc3nc4ccccc4c(=O)[nH]3)CC2)cn1` [Compound C5, 2-{(R)-4-[4-(1-Isopropyl-1H-pyrazole-4-carbonyl)-piperidin-1-yl]-2-methyl-4-oxo-butyl}-3H-quinazolin-4-one], the EC50 in the assay with Tankyrases is 3.9e-08 M.
The same measure, in the same setting: the figure for `COC(=O)c1cccc(C(=O)C2CCN(C(=O)C[C@@H](C)Cc3nc4c(C)cccc4c(=O)[nH]3)CC2)c1` [Compound C43, 3-{1-[(S)-3-Methyl-4-(8-methyl-4-oxo-3,4-dihydro-quinazolin-2-yl)-butyryl]-piperidine-4-carbonyl}-benzoic Acid Methyl Ester] is 4.7e-10 M.
Same read-out and setting: the figure for `COC(=O)c1cccc(C(=O)C2CCN(C(=O)C[C@H](C)Cc3nc4c(C)cccc4c(=O)[nH]3)CC2)c1` [Compound C42, 3-{1-[(R)-3-Methyl-4-(8-methyl-4-oxo-3,4-dihydro-quinazolin-2-yl)-butyryl]-piperidine-4-carbonyl}-benzoic Acid Methyl Ester] is 2.5e-08 M; for `CC(C)n1cc(C(=O)C2CCN(C(=O)C[C@@H](C)Cc3nc4ccccc4c(=O)[nH]3)CC2)cn1` [Compound C4, 2-{(S)-4-[4-(1-Isopropyl-1H-pyrazole-4-carbonyl)-piperidin-1-yl]-2-methyl-4-oxo-butyl}-3H-quinazolin-4-one] it is 4.7e-09 M.
The same measure, in the same setting: the figure for `Cc1cccc2c(=O)[nH]c(C[C@H](C)CC(=O)N3CCC(C(=O)c4cccc(C(=O)O)c4)CC3)nc12` [Compound C45, 3-{1-[(S)-3-Methyl-4-(8-methyl-4-oxo-3,4-dihydro-quinazolin-2-yl)-butyryl]-piperidine-4-carbonyl}-benzoic acid] is 8.9e-08 M.
As to `Cn1cc(C(=O)C2CCN(C(=O)CCC(C)(C)c3nc4ccccc4c(=O)[nH]3)CC2)cn1` [Compound C14, 2-{1,1-Dimethyl-4-[4-(1-methyl-1H-pyrazole-4-carbonyl)-piperidin-1-yl]-4-oxo-butyl}-3H-quinazolin-4-one], the values for the IC50 at TNKS1 (setting [1]) and at TNKS2 (setting [2]) were 6.3e-08 M and 4.4e-08 M, respectively.
On to `CC(C)CC(CC(=O)N1CCC(C(=O)c2cnn(C)c2)CC1)Cc1nc2ccccc2c(=O)[nH]1` (stereo in doubt) [Compound C11, 2-((R)-4-Methyl-2-{2-[4-(1-methyl-1H-pyrazole-4-carbonyl)-piperidin-1-yl]-2-oxo-ethyl}-pentyl)-3H-quinazolin-4-one], for which the EC50 in the assay with Tankyrases is 5e-09 M.
For `COc1ccc(C(=O)C2CCN(C(=O)N(C)CCc3nc4ccccc4c(=O)[nH]3)CC2)cc1` [Compound C30, 4-(4-Methoxy-benzoyl)-piperidine-1-carboxylic acid methyl-[2-(4-oxo-3,4-dihydro-quinazolin-2-yl)-ethyl]-amide], the figures for the IC50 on TNKS1 (setting [1]) and at TNKS2 (setting [2]) were 6.2e-10 M and 5.7e-10 M, respectively.
As for `CC(C)(CC(=O)N1CCC(C(=O)c2cccc(C(=O)O)c2)CC1)Cc1nc2ccccc2c(=O)[nH]1` [Compound C35, 3-{1-[3,3-Dimethyl-4-(4-oxo-3,4-dihydro-quinazolin-2-yl)-butyryl]-piperidine-4-carbonyl}-benzoic Acid], the EC50 in the assay on Tankyrases amounted to 5.5e-06 M.
With `C[C@H](CC(=O)N1CCC(C(=O)c2cnn(C)c2)CC1)Cc1nc2ccccc2c(=O)[nH]1` [Compound C2, 2-{(S)-2-Methyl-4-[4-(1-methyl-1H-pyrazole-4-carbonyl)-piperidin-1-yl]-4-oxo-butyl}-3H-quinazolin-4-one], the concentration giving a half-maximal response (EC50) in the assay with Tankyrases came to 4.7e-09 M.
